Data on one sequence can be found in publication PMC4627230, “Identification of TAX2 peptide as a new unpredicted anti-cancer agent” (Oncotarget, 2015).

For test [1], the system named is TSP-1. In words: Surface plasmon resonance. Format: binding. Particulars: data not shown. (In general: In SPR one partner is held on a chip, and binding of the other changes the refractive index at the surface.)
The test system of test [2] is HUVECs. In words: Wound-healing migration assay. It is filed as cell-based, human. Particulars: 100 μM, 9 h, after mitomycin C, mean of 3 in quadruplicate. On the procedure:
Figure 2 TAX2 peptide impairs endothelial cell migration and inhibits angiogenesis in vitro and ex vivo A. HUVECs were treated with TAX2 (100 μM) or scrambled peptide (Ctrl, 100 μM). CD47 was immunoprecipitated from total protein lysates using anti-CD47 (clone B6H12) and non-specific IgGs were used as a negative control. Immunocomplexes were then submitted to SDS-PAGE and immunoblotted (IB) using specific TSP-1 and CD47 antibodies. Histogram represents the quantification of co-immunoprecipitated TSP-1 relative to immunoprecipitated CD47. Results are expressed as percentage compared to control (n = 3 separate experiments, t test). B. HUVECs (1 × 10^5 per well) were grown at confluence and then cell proliferation was inhibited by incubating with 10 μg/mL mitomycin C for 2 h. […] Graph represents the quantification of the wounded area. […] Hoechst-stained migrating cells attached on outside surface of the top chamber were photographed (20× objective) and counted. Results are expressed as percentage of migrated cells as compared to control. […] After 8 h incubation, HUVEC tube-like formation was observed on an inverted microscope (40×) and quantification of network total length was done using ImageJ software. […] Data are expressed as the mean ± SE from at least 3 independent experiments, each performed in triplicate. […] The transcriptional level of TSP-1 was assessed by RT-PCR and normalized to β-actin. […]

The test system of test [3] is B16F1 melanoma tumor in C57BL/6 mice. Nature of the test: Subcutaneous B16F1 melanoma allograft: tumor volume and necrosis. It is filed as in vivo, mouse. Particulars: 10 mg/kg i.p. days 3, 5, 7. How it is done: For the subcutaneous melanoma tumor model, suspensions of B16F1 cells (2.5 × 10^5 cells in 100 μL RPMI-1640 medium) were subcutaneously injected into the left flank of different randomized series of syngeneic C57BL/6 mice (n = 8–10 per group), as previously described. Intraperitoneal administrations of peptide (10 mg/kg mouse weight) or controls (physiological serum 0.9% (w/v) NaCl or a scrambled peptide) were performed at days 3, 5 and 7. In human pancreatic carcinoma xenograft experiments, 3 × 10^6 MIA PaCa-2 cells/mouse were implanted subcutaneously into the left flank of BALB/C athymic nude mice, then TAX2 intraperitoneal treatments (10 mg/kg mouse weight) were performed 3 times a week during 4 weeks starting at day 10 after tumor cells inoculation. Tumor volume was determined according to v = 0.5 A × B^2, where A denotes the largest dimension of the tumor and B represents the smallest dimension. At days indicated, mice were sacrificed and tumors were surgically extracted and fixed in 4% paraformaldehyde for further morphologic studies and for magnetic resonance imaging, or frozen for immunohistochemistry. Mice were also weighed every 2–3 days and daily checked for any modification in their behavior. Loss of 15% body weight was an indication for euthanasia as well as severe tumor necrosis, as it was sometimes associated with skin ulceration that would result in loss of body fluid and/or infection.
Histological analysis of formaldehyde-fixed and paraffin-embedded tumors were performed on hemalun, phloxin and saffron (HPS) stained 3 μm thick sections prepared using routine histological methods. To assess tumor-associated microvessel density (MVD), CD31 immunostaining was performed on 5 μm thick cryosections using biotin-labeled secondary antibody and streptavidin-HRP AEC detection system (Microm Microtech, Francheville, France), followed by hematein counter-coloration. Negative controls were done omitting the primary antibody. The necrotic part relative to total tumor surface for each tumor slice as well as MVD were quantified using ImageJ software.
Tumors were studied by magnetic resonance imaging (MRI) for visualization of tumor necrosis when the subcutaneous allografts reached a diameter of about 0.8 cm (day 12). […] Image treatment, segmentation, tri-dimensional reconstruction and quantification were performed using ImageJ and Amira 5.4.3 (Visualization Sciences Group, Burlington, MA, USA) software.
Animals were anesthetized by isoflurane (Forene, Abbott France, Rungis, France) inhalation (3% for induction and 1–1.5% for maintenance) and then after placed in a carbon fibers bed. […] Analysis of reconstructed images and quantification of the vascular network were performed using Amira 5.4.3 software.

On to “CEVSQLLKGDAC (disulfide) [TAX2, CD47-derived cyclic disulfide dodecapeptide …]”, for which the “binding to TSP-1 by surface plasmon resonance” value in test [1] was “confirmed”. Also, in test [2], the “endothelial cell migration rate (wound healing)” value is given as “reduced migration rate”. The “large central necrotic area inside tumor masses (MRI and μCT)” value in test [3] was “large central necrotic area inside tumor masses”. Besides, the “median tumor volume, melanoma” value in test [3] (early stages (day 12, caliper), n = 54) is “No significant modification”. Further, in test [3] (p < 0.05), the “increase of necrotic area vs control (HPS staining)” value is “about 3 fold”. In test [3] (photographs), the “tumor necrosis at day 20” value is given as “substantial tumor necrosis”.
